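GI50 marks 50% less growth. TGI: total growth inhibition.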
Experiments:
Test in all cases: inhibition of tumour cell growth, NCI panel, 384-well format
LOX IMVI melanoma = system: LOX IMVI melanoma
COLO 205 colon = system: COLO 205 colon
CCRF-CEM leukemia = system: CCRF-CEM leukemia
A498 renal = system: A498 renal
NCI-H522 lung = system: NCI-H522 lung
SK-MEL-28 melanoma = system: SK-MEL-28 melanoma
UACC-257 melanoma = system: UACC-257 melanoma
RPMI-8226 leukemia = system: RPMI-8226 leukemia
NCI-H322M lung = system: NCI-H322M lung
UACC-62 melanoma = system: UACC-62 melanoma
CAKI-1 renal = system: CAKI-1 renal
NCI/ADR-RES ovarian = system: NCI/ADR-RES ovarian
HCC-2998 colon = system: HCC-2998 colon
SW-620 colon = system: SW-620 colon
SF-295 CNS = system: SF-295 CNS
K-562 leukemia = system: K-562 leukemia
HOP-62 NSCLC = system: HOP-62 NSCLC
MALME-3M melanoma = system: MALME-3M melanoma
NCI-H226 lung = system: NCI-H226 lung
SNB-75 CNS = system: SNB-75 CNS
HCT-15 colon = system: HCT-15 colon
A549 NSCLC = system: A549 NSCLC
KM12 colon = system: KM12 colon
786-0 renal = system: 786-0 renal
MCF7 breast = system: MCF7 breast
SK-MEL-2 melanoma = system: SK-MEL-2 melanoma
SNB-19 CNS = system: SNB-19 CNS
MDA-MB-468 breast = system: MDA-MB-468 breast
HT29 colon = system: HT29 colon
MDA-MB-435 melanoma = system: MDA-MB-435 melanoma
PC-3 prostate = system: PC-3 prostate
OVCAR-8 ovarian = system: OVCAR-8 ovarian
SK-OV-3 ovarian = system: SK-OV-3 ovarian
TK-10 renal = system: TK-10 renal
NCI-H460 NSCLC = system: NCI-H460 NSCLC
EKVX NSCLC = system: EKVX NSCLC
HCT-116 colon = system: HCT-116 colon
OVCAR-4 ovarian = system: OVCAR-4 ovarian
RXF 393 renal = system: RXF 393 renal
DU-145 prostate = system: DU-145 prostate
HL-60(TB) leukemia = system: HL-60(TB) leukemia
SK-MEL-5 melanoma = system: SK-MEL-5 melanoma
MOLT-4 leukemia = system: MOLT-4 leukemia
HOP-92 NSCLC = system: HOP-92 NSCLC
U251 glioblastoma = system: U251 glioblastoma
SF-539 CNS = system: SF-539 CNS
OVCAR-3 ovarian = system: OVCAR-3 ovarian
HS 578T breast = system: HS 578T breast
NCI-H23 lung = system: NCI-H23 lung
ACHN renal = system: ACHN renal
SF-268 CNS = system: SF-268 CNS
IGROV1 ovarian = system: IGROV1 ovarian
M14 melanoma = system: M14 melanoma
BT-549 breast = system: BT-549 breast
SN12C renal = system: SN12C renal

For CC1=CC(=O)C=CC1=Nc1ccc(N(C)C)cc1, the GI50 (LOX IMVI melanoma) was 11.6 µM, the TGI (LOX IMVI melanoma) was 23.9 µM and the GI50 (COLO 205 colon) was 2.92 µM. The TGI (COLO 205 colon) was 7.43 µM, the GI50 (CCRF-CEM leukemia) was 1.43 µM and the TGI (CCRF-CEM leukemia) was 2.77 µM. For the same compound, the GI50 (A498 renal) was 11.4 µM, the TGI (A498 renal) was 23.6 µM and the GI50 (NCI-H522 lung) was 2.21 µM. The TGI (NCI-H522 lung) was 10.4 µM, the GI50 (SK-MEL-28 melanoma) was 15.6 µM and the TGI (SK-MEL-28 melanoma) was 29 µM. The GI50 (UACC-257 melanoma) was 6.22 µM, the TGI (UACC-257 melanoma) was 18.4 µM and the GI50 (RPMI-8226 leukemia) was 1.76 µM. For the same compound, the TGI (RPMI-8226 leukemia) was 3.19 µM, the GI50 (NCI-H322M lung) was 17.6 µM and the TGI (NCI-H322M lung) was 31.5 µM. It also gave a GI50 (UACC-62 melanoma) of 1.83 µM, a TGI (UACC-62 melanoma) of 3.92 µM and a GI50 (CAKI-1 renal) of 8.66 µM. For the same compound, the TGI (CAKI-1 renal) was 20.8 µM, the GI50 (NCI/ADR-RES ovarian) was 6.51 µM and the TGI (NCI/ADR-RES ovarian) was 19.2 µM. The GI50 (HCC-2998 colon) was 5.21 µM, the TGI (HCC-2998 colon) was 20.1 µM and the GI50 (SW-620 colon) was 13.4 µM. For the same compound, the TGI (SW-620 colon) was 26.4 µM, the GI50 (SF-295 CNS) was 15.3 µM and the TGI (SF-295 CNS) was 28.7 µM. It also gave a GI50 (K-562 leukemia) of 12.1 µM, a TGI (K-562 leukemia) of 24.5 µM and a GI50 (HOP-62 NSCLC) of 3.92 µM. It also gave a TGI (HOP-62 NSCLC) of 9.14 µM, a GI50 (MALME-3M melanoma) of 15.3 µM and a TGI (MALME-3M melanoma) of 28.6 µM. For the same compound, the GI50 (NCI-H226 lung) was 8.38 µM, the TGI (NCI-H226 lung) was 20.6 µM and the GI50 (SNB-75 CNS) was 17.4 µM. For the same compound, the TGI (SNB-75 CNS) was 31.2 µM, the GI50 (HCT-15 colon) was 11.4 µM and the TGI (HCT-15 colon) was 23.6 µM. It also gave a GI50 (A549 NSCLC) of 15.3 µM, a TGI (A549 NSCLC) of 28.8 µM and a GI50 (KM12 colon) of 12.6 µM. It also gave a TGI (KM12 colon) of 25.3 µM, a GI50 ([…]-0 renal) of 13 µM and a TGI (786-0 renal) of 25.7 µM. For the same compound, the GI50 (MCF7 breast) was 3.46 µM, the TGI (MCF7 breast) was 13.3 µM and the GI50 (SK-MEL-2 melanoma) was 1.77 µM. The TGI (SK-MEL-2 melanoma) was 3.26 µM, the GI50 (SNB-19 CNS) was 15.3 µM and the TGI (SNB-19 CNS) was 28.7 µM. It also gave a GI50 (MDA-MB-468 breast) of 0.361 µM, a TGI (MDA-MB-468 breast) of 1.34 µM and a GI50 (HT29 colon) of 14.4 µM. For the same compound, the TGI (HT29 colon) was 27.7 µM, the GI50 (MDA-MB-435 melanoma) was 2.52 µM and the TGI (MDA-MB-435 melanoma) was 6.2 µM. It also gave a GI50 (PC-3 prostate) of 3.22 µM, a TGI (PC-3 prostate) of 10.4 µM and a GI50 (OVCAR-8 ovarian) of 3.49 µM. The TGI (OVCAR-8 ovarian) was 9.79 µM, the GI50 (SK-OV-3 ovarian) was 15.5 µM and the TGI (SK-OV-3 ovarian) was 29 µM. For the same compound, the GI50 (TK-10 renal) was 10.7 µM, the TGI (TK-10 renal) was 22.6 µM and the GI50 (NCI-H460 NSCLC) was 16.4 µM. For the same compound, the TGI (NCI-H460 NSCLC) was 30.2 µM, the GI50 (EKVX NSCLC) was 11.3 µM and the TGI (EKVX NSCLC) was 23.5 µM. For the same compound, the GI50 (HCT-116 colon) was 2.67 µM, the TGI (HCT-116 colon) was 8.2 µM and the GI50 (OVCAR-4 ovarian) was 2.58 µM. It also gave a TGI (OVCAR-4 ovarian) of 12.4 µM, a GI50 (RXF 393 renal) of 4.87 µM and a TGI (RXF 393 renal) of 16.6 µM. The GI50 (DU-145 prostate) was 14 µM, the TGI (DU-145 prostate) was 27 µM and the GI50 (HL-60(TB) leukemia) was 1.33 µM. The TGI (HL-60(TB) leukemia) was 2.62 µM, the GI50 (SK-MEL-5 melanoma) was 6.37 µM and the TGI (SK-MEL-5 melanoma) was 19.9 µM. The GI50 (MOLT-4 leukemia) was 1.38 µM, the TGI (MOLT-4 leukemia) was 2.68 µM and the GI50 (HOP-92 NSCLC) was 2.65 µM. The TGI (HOP-92 NSCLC) was 6.19 µM, the GI50 (U251 glioblastoma) was 10.4 µM and the TGI (U251 glioblastoma) was 22.2 µM. The GI50 (SF-539 CNS) was 10.1 µM, the TGI (SF-539 CNS) was 21.7 µM and the GI50 (OVCAR-3 ovarian) was 1.6 µM. It also gave a TGI (OVCAR-3 ovarian) of 3.06 µM, a GI50 (HS 578T breast) of 12.3 µM and a TGI (HS 578T breast) of 24.8 µM. For the same compound, the GI50 (NCI-H23 lung) was 4.94 µM, the TGI (NCI-H23 lung) was 18 µM and the GI50 (ACHN renal) was 5.29 µM. It also gave a TGI (ACHN renal) of 18.7 µM, a GI50 (SF-268 CNS) of 16.5 µM and a TGI (SF-268 CNS) of 30.1 µM. The GI50 (IGROV1 ovarian) was 12.1 µM, the TGI (IGROV1 ovarian) was 24.5 µM and the GI50 (M14 melanoma) was 12.5 µM. For the same compound, the TGI (M14 melanoma) was 25 µM, the GI50 (BT-549 breast) was 6.14 µM and the TGI (BT-549 breast) was 18.6 µM. It also gave a GI50 (SN12C renal) of 11.6 µM and a TGI (SN12C renal) of 23.9 µM.

Reference: PubChem BioAssay (NCI)
